The source of these data is the Kinase Knowledgebase extract (Sharma et al. 2016).

One assay deals with MAPK14 (human) (UniProt Q16539). Briefly: Enzyme Assay.
For another assay, the target named is ROCK2 (human) (UniProt O75116). Briefly: Enzyme Assay.
The next assay concerns the target EGFR (human) (UniProt P00533).
The target of a further assay is CDK2 (human) (UniProt P24941). Briefly: Enzyme Assay.

Structures are written as SMILES.

MAPK14 (human), sequence (Q16539 whole entry, looked up): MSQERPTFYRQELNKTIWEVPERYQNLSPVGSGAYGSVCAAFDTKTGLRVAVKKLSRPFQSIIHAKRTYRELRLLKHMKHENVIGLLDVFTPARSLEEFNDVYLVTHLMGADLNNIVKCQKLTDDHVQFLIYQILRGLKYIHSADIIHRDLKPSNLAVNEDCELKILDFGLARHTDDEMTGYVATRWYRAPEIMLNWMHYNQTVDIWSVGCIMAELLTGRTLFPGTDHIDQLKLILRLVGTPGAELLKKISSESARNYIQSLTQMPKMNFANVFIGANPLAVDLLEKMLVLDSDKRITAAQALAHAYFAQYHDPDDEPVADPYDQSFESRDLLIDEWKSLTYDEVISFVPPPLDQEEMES
ROCK2 (human), sequence (O75116 whole entry, looked up): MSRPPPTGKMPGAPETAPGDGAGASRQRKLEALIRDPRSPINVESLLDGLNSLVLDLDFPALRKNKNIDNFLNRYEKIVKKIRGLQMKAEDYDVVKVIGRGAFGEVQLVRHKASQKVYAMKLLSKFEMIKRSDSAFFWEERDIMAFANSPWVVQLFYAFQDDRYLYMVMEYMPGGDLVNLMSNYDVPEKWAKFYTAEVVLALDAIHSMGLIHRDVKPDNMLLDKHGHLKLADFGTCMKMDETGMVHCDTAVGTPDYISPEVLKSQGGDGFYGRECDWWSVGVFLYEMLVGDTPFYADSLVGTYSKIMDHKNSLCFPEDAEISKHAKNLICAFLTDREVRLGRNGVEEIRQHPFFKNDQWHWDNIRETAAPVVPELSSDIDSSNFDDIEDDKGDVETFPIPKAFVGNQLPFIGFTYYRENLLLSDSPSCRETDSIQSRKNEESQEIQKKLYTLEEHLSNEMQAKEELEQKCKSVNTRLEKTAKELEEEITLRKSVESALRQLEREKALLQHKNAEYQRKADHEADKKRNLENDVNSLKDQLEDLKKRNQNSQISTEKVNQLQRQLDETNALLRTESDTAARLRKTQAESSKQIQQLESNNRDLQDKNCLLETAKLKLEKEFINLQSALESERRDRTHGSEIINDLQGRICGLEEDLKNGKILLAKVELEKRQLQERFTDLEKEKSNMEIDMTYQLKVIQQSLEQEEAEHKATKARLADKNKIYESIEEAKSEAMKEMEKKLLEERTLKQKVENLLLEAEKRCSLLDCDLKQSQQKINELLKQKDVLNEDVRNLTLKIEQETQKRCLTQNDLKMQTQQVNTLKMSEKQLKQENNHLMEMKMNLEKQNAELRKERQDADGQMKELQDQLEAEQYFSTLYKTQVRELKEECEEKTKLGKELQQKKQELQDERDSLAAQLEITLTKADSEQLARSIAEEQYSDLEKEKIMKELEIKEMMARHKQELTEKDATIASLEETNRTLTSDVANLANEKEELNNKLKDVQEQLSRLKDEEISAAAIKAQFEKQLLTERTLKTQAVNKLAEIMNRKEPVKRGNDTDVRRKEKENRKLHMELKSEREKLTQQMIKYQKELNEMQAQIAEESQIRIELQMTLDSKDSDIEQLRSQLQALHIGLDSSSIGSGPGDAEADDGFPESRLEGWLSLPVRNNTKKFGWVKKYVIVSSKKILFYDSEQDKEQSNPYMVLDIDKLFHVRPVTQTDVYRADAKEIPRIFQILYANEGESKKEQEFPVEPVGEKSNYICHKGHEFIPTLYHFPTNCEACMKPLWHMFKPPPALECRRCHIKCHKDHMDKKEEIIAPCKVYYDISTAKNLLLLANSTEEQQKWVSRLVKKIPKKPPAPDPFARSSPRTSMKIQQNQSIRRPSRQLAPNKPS
EGFR (human), sequence (P00533 whole entry, looked up): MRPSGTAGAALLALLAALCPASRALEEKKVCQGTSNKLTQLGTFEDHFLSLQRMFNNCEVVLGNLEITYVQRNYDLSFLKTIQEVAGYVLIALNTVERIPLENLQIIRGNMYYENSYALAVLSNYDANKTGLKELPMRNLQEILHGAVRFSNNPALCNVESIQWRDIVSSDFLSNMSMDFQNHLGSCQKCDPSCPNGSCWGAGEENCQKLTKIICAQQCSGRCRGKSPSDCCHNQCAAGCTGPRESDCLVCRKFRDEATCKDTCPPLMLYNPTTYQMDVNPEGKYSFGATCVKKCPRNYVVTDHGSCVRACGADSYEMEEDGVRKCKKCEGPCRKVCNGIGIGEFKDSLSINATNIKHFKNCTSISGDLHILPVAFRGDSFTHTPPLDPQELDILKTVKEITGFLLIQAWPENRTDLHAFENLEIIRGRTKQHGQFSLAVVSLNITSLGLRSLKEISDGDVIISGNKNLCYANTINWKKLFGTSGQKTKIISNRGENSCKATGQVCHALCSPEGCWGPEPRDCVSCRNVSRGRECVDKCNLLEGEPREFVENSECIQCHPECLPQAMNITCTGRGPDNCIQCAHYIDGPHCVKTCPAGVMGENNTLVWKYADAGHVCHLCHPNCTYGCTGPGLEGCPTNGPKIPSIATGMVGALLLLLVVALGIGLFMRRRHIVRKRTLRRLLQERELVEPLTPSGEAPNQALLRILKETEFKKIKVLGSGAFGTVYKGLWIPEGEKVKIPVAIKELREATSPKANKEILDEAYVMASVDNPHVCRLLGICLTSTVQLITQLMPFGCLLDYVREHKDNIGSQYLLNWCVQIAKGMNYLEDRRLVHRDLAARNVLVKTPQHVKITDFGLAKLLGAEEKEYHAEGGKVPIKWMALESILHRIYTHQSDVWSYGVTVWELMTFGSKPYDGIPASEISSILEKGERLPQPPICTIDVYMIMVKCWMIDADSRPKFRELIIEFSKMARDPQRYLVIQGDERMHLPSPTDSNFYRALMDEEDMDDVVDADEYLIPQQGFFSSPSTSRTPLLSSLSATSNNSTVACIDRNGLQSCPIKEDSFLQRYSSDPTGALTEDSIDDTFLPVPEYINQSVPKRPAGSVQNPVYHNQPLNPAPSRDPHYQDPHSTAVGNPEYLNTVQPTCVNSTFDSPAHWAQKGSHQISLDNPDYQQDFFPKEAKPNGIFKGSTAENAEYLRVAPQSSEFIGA

As to `O=C(Nc1cc(-c2c[nH]c3ncccc23)cc(Cl)n1)c1ccccc1`, the Ki on MAPK14 (human) is 3.16 µM; on ROCK2 (human), greater than 1 µM.

In turn, `Fc1cccc(CNc2ncnc3[nH]cnc23)c1` had a Ki on MAPK14 (human) of 15.8 µM.

`CC(C)(C)c1cc(NC(=O)C(=O)c2cccc3ccccc23)n(-c2ccc(OCC(=O)NCCO)cc2)n1`: the Ki on MAPK14 (human) was determined as 0.631 µM. For `Cc1cc(=O)[nH]c2[nH]nc(-c3cccc(C(F)(F)F)c3)c12`, the inhibition constant Ki at MAPK14 (human) is 0.398 µM. At MAPK14 (human), `CC(=O)n1ncc2cc(N)ccc21` showed a Ki of 7.94 µM. On the same count and under the same terms, the result for `CC(C)CC(NC(=O)c1cccc(-n2nc(C(C)(C)C)cc2NC(=O)Nc2cccc3ccccc23)c1)C(N)=O` (stereo unspecified) reads 0.794 µM; that for `Nc1ccc2cc(NCCc3ccccc3)cc(Nc3ncccn3)c2n1`, 2.51 µM; that for `COc1c(-c2nc3ccccc3[nH]2)c(O)cc2oc(C)cc(=O)c12`, 3.98 µM. On the same count and under the same terms, the result for `O=C(Cc1cccs1)Nc1nc2ccccc2s1` reads 3.98 µM; that for `COc1ccc(C2=NNc3cccc4c(OC)ccc2c34)cc1OC`, 0.501 µM. `c1ccc(-c2ncc3ccccn23)cc1` registered a Ki at MAPK14 (human) of 50.1 µM. Same read-out and setting: the result for `NC(=O)c1ccc2nc(-c3ccc([N+](=O)[O-])o3)cn2c1` reads 3.16 µM. `COc1cc2ncn(-c3cc(OCc4ccccc4C(F)(F)F)c(C(N)=O)s3)c2cc1OC`: the inhibition constant Ki is 0.251 µM at EGFR (human) and greater than 7.94 µM on ROCK2 (human). `CC(C)(C)c1cc(NC(=O)c2cc3ccccc3s2)n(-c2cccc(OCC(=O)O)c2)n1` had an inhibition constant (Ki) on MAPK14 (human) of 0.794 µM. Consider `CC(C)(C)c1cc(NC(=O)C(=O)c2cccc3ccccc23)n(-c2ccc(OCCC(N)=O)cc2)n1`, for which the Ki at MAPK14 (human) was determined as 0.631 µM. Consider `CN(C)C1CCC(Nc2nc(Cl)cc(-c3c[nH]c4ncccc34)n2)CC1` (stereo unspecified), for which the inhibitory constant (Ki) on CDK2 (human) was found to be 0.0251 µM; at ROCK2 (human), 0.00251 µM. Turning to `Cc1cc(=O)[nH]nc1-c1ccc(NC(=O)Nc2cc(C(F)(F)F)ccc2F)c(Cl)c1`, the Ki at MAPK14 (human) was found to be 0.1 µM. Take `NC(=O)c1ccc(-c2ccncc2)cc1NCc1cccc(F)c1`: the Ki was found to be 3.16 µM on CDK2 (human) and 5.01 µM at ROCK2 (human).

In the case of `COc1ccccc1C(=O)Nc1n[nH]c2ccc(-c3cn(Cc4ccccc4)nn3)cc12`, the results for the Ki at CDK2 (human) and at ROCK2 (human) were 0.251 µM and greater than 7.94 µM, respectively. On the same counts, the results for `Cc1n[nH]c2ccc(-c3cncc(OCCNS(C)(=O)=O)c3)cc12` are 0.316 µM and 0.158 µM. At MAPK14 (human), `CC(C)(C)c1cc(NC(=O)c2cc3ccccc3s2)n(-c2ccc(OCC(=O)O)cc2)n1` gave an inhibition constant Ki of 2.51 µM. Consider `COCCN(CCOC)c1cc(-c2c[nH]c3ncccc23)cc(Cl)n1`, for which the values for the inhibition constant Ki on CDK2 (human) and on ROCK2 (human) were 2 µM and 0.0398 µM, respectively. The compound `Cc1ccc(-c2cc(-c3cc(Br)ccc3O)[nH]c(=O)c2C#N)s1` had an inhibitory constant (Ki) at MAPK14 (human) of 2.51 µM.

As for `O=C1c2ccccc2-c2n[nH]c3cccc1c23`, the Ki on CDK2 (human) was determined as 0.0794 µM; at ROCK2 (human) it was 3.16 µM.

As for `CCC(=O)Nc1ccc(C(=O)N2CCNCC2)c(O)c1`, at MAPK14 (human), the Ki was determined as 1 µM. In other words, the single-digit micromolar range.

Take `CN(Cc1ccccc1)c1cc(-c2c[nH]c3ncccc23)cc(Cl)n1`: the Ki on CDK2 (human) was 0.0316 µM; on ROCK2 (human), 0.02 µM. For `c1cnc2[nH]cc(-c3ccnc(NCC4CCCCC4)n3)c2c1`, in that order: 0.00398 µM and 0.00631 µM. In turn, `CCN(CCN(C)C)C(=O)c1cccc(-n2nc(C(C)(C)C)cc2NC(=O)Nc2cccc3ccccc23)c1` displayed a Ki on MAPK14 (human) of 0.794 µM.

As to `CCOC(=O)c1cn(-c2ccc(O)cc2C)c2cc(-c3ccncc3)ccc2c1=O`, the Ki on CDK2 (human) was 3.98 µM; on ROCK2 (human), 0.0316 µM. `CC(C)(C)c1cc(NC(=O)Nc2cccc3ccccc23)n(-c2cccc(C(=O)N(CCN)CCO)c2)n1`: the inhibitory constant (Ki) at MAPK14 (human) was 0.631 µM.
